Test results from ChEMBL document CHEMBL2401728, “An unexpected Dimroth rearrangement leading to annelated thieno[3,2-d][1,2,3]triazolo[1,5-a]pyrimidines with potent antitumor activity” (Eur J Med Chem, 2013).

Key:
[1] = Cytotoxicity against human breast cancer cells assessed as cellular growth at 10 uM after 48 hrs by SRB assay relative to control; type: functional, Cancer cell lines
[2] = Cytotoxicity against human leukemia cells assessed as cellular growth at 10 uM after 48 hrs by SRB assay relative to control; type: functional, Leukemia cell
[3] = Cytotoxicity against human ovarian cancer cells assessed as cellular growth at 10 uM after 48 hrs by SRB assay relative to control; type: functional, Cancer cell lines
[4] = Cytotoxicity against human melanoma cells assessed as cellular growth at 10 uM after 48 hrs by SRB assay relative to control; type: functional, Melanoma cell
[5] = Cytotoxicity against human renal cancer cells assessed as cellular growth at 10 uM after 48 hrs by SRB assay relative to control; type: functional, Cancer cell lines
[6] = Cytotoxicity against human prostate cancer cells assessed as cellular growth at 10 uM after 48 hrs by SRB assay relative to control; type: functional, Cancer cell lines
[7] = Cytotoxicity against human non-small cell lung cancer cells assessed as cellular growth at 10 uM after 48 hrs by SRB assay relative to control; type: functional, Cancer cell lines
[8] = system: HT-29; assay: Cytotoxicity against human HT-29 cells assessed as cellular growth at 0.1 uM after 48 hrs by SRB assay relative to control; type: functional
[9] = system: Mus musculus; assay: Toxicity in mouse at 100 to 400 mg/kg measured for 2 weeks; type: organism-based; set-up: dose 100-400 mg/kg; conditions: in vivo, 336 h
[10] = system: HT-29; assay: Cytotoxicity against human HT-29 cells assessed as cellular growth at 0.01 uM after 48 hrs by SRB assay relative to control; type: functional
[11] = system: PC-3; assay: Cytotoxicity against human PC3 cells assessed as cellular growth at 0.01 uM after 48 hrs by SRB assay relative to control; type: functional
[12] = system: HT-29; assay: Cytotoxicity against human HT-29 cells after 48 hrs by SRB assay; type: functional; conditions: HT-29, 48 h
[13] = system: MOLT-4; assay: Cytotoxicity against human MOLT4 cells after 48 hrs by SRB assay; type: functional; conditions: MOLT-4, 48 h
[14] = system: RPMI-8226; assay: Cytotoxicity against human RPMI8226 cells assessed as cellular growth at 100 uM after 48 hrs by SRB assay relative to control; type: functional
[15] = system: HCC 2998; assay: Cytotoxicity against human HCC2998 cells assessed as cellular growth at 1 uM after 48 hrs by SRB assay relative to control; type: functional
[16] = system: RPMI-8226; assay: Cytotoxicity against human RPMI8226 cells after 48 hrs by SRB assay; type: functional; conditions: RPMI-8226, 48 h
[17] = system: MOLT-4; assay: Cytotoxicity against human MOLT4 cells assessed as cellular growth at 100 uM after 48 hrs by SRB assay relative to control; type: functional
[18] = system: RPMI-8226; assay: Cytotoxicity against human RPMI8226 cells assessed as cellular growth at 1 uM after 48 hrs by SRB assay relative to control; type: functional
[19] = system: MOLT-4; assay: Cytotoxicity against human MOLT4 cells assessed as cellular growth at 1 uM after 48 hrs by SRB assay relative to control; type: functional
[20] = system: CAKI-1; assay: Cytotoxicity against human Caki1 cells assessed as cellular growth at 0.01 uM after 48 hrs by SRB assay relative to control; type: functional
[21] = system: HCC 2998; assay: Cytotoxicity against human HCC2998 cells after 48 hrs by SRB assay; type: functional; conditions: HCC 2998, 48 h
[22] = system: MOLT-4; assay: Cytotoxicity against human MOLT4 cells assessed as cellular growth at 0.1 uM after 48 hrs by SRB assay relative to control; type: functional
[23] = system: RPMI-8226; assay: Cytotoxicity against human RPMI8226 cells assessed as cellular growth at 0.1 uM after 48 hrs by SRB assay relative to control; type: functional
[24] = system: HCC 2998; assay: Cytotoxicity against human HCC2998 cells assessed as cellular growth at 0.1 uM after 48 hrs by SRB assay relative to control; type: functional
[25] = system: CAKI-1; assay: Cytotoxicity against human Caki1 cells after 48 hrs by SRB assay; type: functional; conditions: CAKI-1, 48 h
[26] = system: CAKI-1; assay: Cytotoxicity against human Caki1 cells assessed as cellular growth at 0.1 uM after 48 hrs by SRB assay relative to control; type: functional
[27] = system: CAKI-1; assay: Cytotoxicity against human Caki1 cells assessed as cellular growth at 1 uM after 48 hrs by SRB assay relative to control; type: functional
[28] = system: HCC 2998; assay: Cytotoxicity against human HCC2998 cells assessed as cellular growth at 100 uM after 48 hrs by SRB assay relative to control; type: functional
[29] = system: MOLT-4; assay: Cytotoxicity against human MOLT4 cells assessed as cellular growth at 0.01 uM after 48 hrs by SRB assay relative to control; type: functional
[30] = read-out: LC50 (the source's name)
[31] = read-out: pLC50 (the source's name) (converted)

O=C(O)CCCn1c2c(sc3ccccc32)c(=O)n2nnc(-c3ccccc3)c12
Activity [1]: 79%
Activity [2]: 102%
Activity [3]: 105%
Activity [4]: 95%
Activity [5]: 75%
Activity [6]: 92%
Activity [7]: 85%

O=C(CCCn1c2c(sc3ccccc32)c(=O)n2nnc(-c3ccccc3)c12)NCCc1c[nH]cn1
Activity [8]: 84%
Activity [9]: Non-toxic
Activity [10]: 113%
Activity [11]: 86%
GI50 ([12]; read-out: GI50): 0.674 µM
CC50 [12, 30]: 4.55 µM
TGI ([12]; read-out: TGI): 2.01 µM
GI50 ([12]; read-out: pGI50 (converted)): 0.676 µM
CC50 [12, 31]: 4.57 µM
TGI ([12]; read-out: pTGI (converted)): 2 µM

CN1CCN(CCCn2c3c(sc4ncccc43)c(=O)n3nnc(-c4ccccc4)c23)CC1
GI50 ([13]; read-out: GI50): 1.98 µM
CC50 [13, 30]: 11.5 µM
TGI ([13]; read-out: TGI): 4.45 µM
GI50 ([13]; read-out: pGI50 (converted)): 2 µM
CC50 [13, 31]: 11.5 µM
TGI ([13]; read-out: pTGI (converted)): 4.47 µM
Activity [14]: -46%
Activity [15]: 102%
GI50 ([16]; read-out: GI50): 1.81 µM
CC50 [16, 30]: > 100 µM
TGI ([16]; read-out: TGI): 4.33 µM
GI50 ([16]; read-out: pGI50 (converted)): 1.82 µM
CC50 ([16]; read-out: pLC50 (converted)): > 100 µM
TGI ([16]; read-out: pTGI (converted)): 4.37 µM
Activity [17]: -56%
Activity [18]: 84%
Activity [19]: 92%
Activity [20]: 97%
GI50 ([21]; read-out: GI50): 1.88 µM
CC50 [21, 30]: 6.39 µM
TGI ([21]; read-out: TGI): 3.47 µM
GI50 ([21]; read-out: pGI50 (converted)): 1.86 µM
CC50 [21, 31]: 6.46 µM
TGI ([21]; read-out: pTGI (converted)): 3.47 µM
Activity [22]: 102%
Activity [23]: 100%
Activity [24]: 99%
GI50 ([25]; read-out: GI50): 1.63 µM
CC50 [25, 30]: 6.65 µM
TGI ([25]; read-out: TGI): 3.29 µM
GI50 ([25]; read-out: pGI50 (converted)): 1.62 µM
CC50 [25, 31]: 6.61 µM
TGI ([25]; read-out: pTGI (converted)): 3.31 µM
Activity [26]: 86%
Activity [27]: 85%
Activity [28]: -76%
Activity [29]: 99%
